Like-named read-outs stand apart in the source and are kept apart here.
Tests used:
[1] = molecular target: T1, GMPPNP-bound KRAS G12C protein and cRAF RAS-binding domain (cRAF-RBD) (Homo sapiens, UniProt P01116, G12C); assay: Inhibitory activity on interaction between KRAS G12C and cRAF (Alpha technology); assay type: biochemical; details: then cRAF-RBD, Alpha signal
T1 construct: made in house; host or cells: E. coli
Outline: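 GMPPNP-loaded His-KRAS G12C (aa 1-169) preincubated 1 h at 25 °C with compound (pH 7.5 Tris, 1 mM MgCl2, TCEP, Tween 20), then cRAF-RBD (aa 50-132) and Alpha reagents added for 1.5 h at RT. Inhibition scaled between DMSO (0%) and GDP-bound KRAS (100%); IC50 by curve fitting.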

[2] = molecular target: Gppcp-bound recombinant K-Ras4B G12C mutant protein (amino acids 1-169, C51S/C80L/C118S) (Homo sapiens, UniProt P01116, C118S/C51S/C80L/G12C); assay: KRASG12C binding assay (LC-MS compound binding rate); details: test compound final concentration 0.5 μM, 25° C., 1 hour
Outline: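 Gppcp-bound K-Ras4B G12C (aa 1-169, C51S/C80L/C118S) at 50 nM in 1×TBS, 0.1 mM TCEP, 0.25 mM MgCl2, 50 μM Gppcp was incubated 1 hour at 25° C with compound at 0.5 μM final. Intact-protein LC-MS gave binding rate as single-adduct signal over total KRAS signal, graded A (≥80%) to E (<20%).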

MIA PaCa-2 cells = assay: Growth inhibition activity on KRAS-G12C mutant cell line (MIA PaCa-2); assay type: cell-based; details: Homo sapiens, 72 h; MIA PaCa-2, 3-day culture, CellTiter-Glo 3D
Method: MIA PaCa-2 cells (given by Sumitomo Dainippon Pharma Co., Ltd.), which are a KRAS-G12C mutant human pancreas cancer cell line, were suspended in a 10% fetal bovine serum-containing RPMI1640 medium (manufactured by Fujifilm Wako Pure Chemical Corporation.). The cell suspension was seeded into each well of a 384-well U bottom microplate and cultured in an incubator containing 5% CO2 gas at 37° C. for 1 day. The compounds obtained in the “Preparation of Compounds” section were used as test compounds and were dissolved in DMSO, respectively, and each test compound was diluted with DMSO to give a concentration 500 times the final concentration. The resultant solution of the test compound in DMSO was diluted with the medium used for suspending cells and added to each well of the cell-culture plate to give a DMSO final concentration of 0.2%, followed by culture in an incubator containing 5% CO2 gas at 37° C. for another 3 days. The cell count after 3-day culture in the presence of the test compound was measured using CellTiter-Glo 3D Reagent (manufactured by Promega Corporation). All wells were added with CellTiter-Glo 3D Reagent and mixed for 10 minutes. 30 minutes after mixing, luminescence was measured by a plate reader. The growth inhibition rate was calculated from the following equation, and the concentration of the test compound at which 50% inhibition was achieved (IC50 (nM)) was determined. […] Growth Inhibition Rate (%)=(C−T)/(C)×100 • T: the emission intensity in a well into which a test compound was added. • C: the emission intensity in a well into which a test compound was not added.

[3] = GMPPNP-bound KRAS G12C incubated with compound at 25° C. for 1 hour, read-out: IC50

With `CCc1nc2cc(-c3cccn4c(C(=O)c5ccc(NC(=O)/C=C/CN[C@H]6CC[C@H](OC)CC6)c(C#N)c5)ccc34)c(C(F)(F)F)cc2n1C` [Example 33, (E)-N-(2-cyano-4-(8-(2-ethyl-1-methyl-6-(trifluoromethyl)-1H-benzo[d]imidazol-5-yl)indolizine-3-carbonyl)phenyl)-4-(((1r,4r)-4-methoxycyclohexyl)amino)but-2-enamide] the IC50 [1, 3] was 45 nM, the binding rate [2] was “A (A binding rate of 80% or more is rated “A”)” and the IC50 (MIA PaCa-2 cells) was 48 nM.
For `CO[C@H]1CC[C@H](NC/C=C/C(=O)Nc2ccc(C(=O)Nc3cccc(-c4cc5nc6n(c5cc4C(F)(F)F)CCC6)n3)cc2C#N)CC1` [Example 34, 3-cyano-4-((E)-4-(((1r,4r)-4-methoxycyclohexyl)amino)but-2-enamido)-N-(6-(7-(trifluoromethyl)-2,3-dihydro-1H-benzo[d]pyrrolo[1,2-a]imidazol-6-yl)pyridin-2-yl)benzamide], the IC50 [1, 3] was 31 nM, the binding rate [2] was “A (A binding rate of 80% or more is rated “A”)” and the IC50 (MIA PaCa-2 cells) was 92 nM.
With `CO[C@H]1CC[C@H](NC/C=C/C(=O)Nc2ccc(C(=O)c3c[nH]c4c(-c5cc6nc7n(c6cc5C(F)(F)F)CCC7)cccc34)cc2C#N)CC1` [Example 35, (E)-N-(2-cyano-4-(7-(7-(trifluoromethyl)-2,3-dihydro-1H-benzo[d]pyrrolo[1,2-a]imidazol-6-yl)-1H-indole-3-carbonyl)phenyl)-4-(((1r,4r)-4-methoxycyclohexyl)amino)but-2-enamide] the IC50 [1, 3] was 19 nM, the binding rate [2] was “A (A binding rate of 80% or more is rated “A”)” and the IC50 (MIA PaCa-2 cells) was 39 nM.
With `CO[C@H]1CC[C@H](NC/C=C/C(=O)Nc2ccc(C(=O)c3ccc4c(-c5cc6ncn(C)c6cc5C(F)F)cccn34)cc2C#N)CC1` [Example 36, (E)-N-(2-cyano-4-(8-(6-(difluoromethyl)-1-methyl-1H-benzo[d]imidazol-5-yl)indolizine-3-carbonyl)phenyl)-4-(((1r,4r)-4-methoxycyclohexyl)amino)but-2-enamide] the IC50 [1, 3] was 23 nM, the binding rate [2] was “A (A binding rate of 80% or more is rated “A”)” and the IC50 (MIA PaCa-2 cells) was 70 nM.
In the case of `CCN(CC)[C@H]1CC[C@H](NC/C=C/C(=O)Nc2ccc(C(=O)Nc3cccc(-c4cc5nc6n(c5cc4C(F)(F)F)CCC6)n3)cc2C#N)CC1` [Example 37, 3-cyano-4-((E)-4-(((1r,4r)-4-(diethylamino)cyclohexyl)amino)but-2-enamido)-N-(6-(7-(trifluoromethyl)-2,3-dihydro-1H-benzo[d]pyrrolo[1,2-a]imidazol-6-yl)pyridin-2-yl)benzamide], the IC50 [1, 3] is reported as 12 nM, the binding rate [2] is reported as “A (A binding rate of 80% or more is rated “A”)” and the IC50 (MIA PaCa-2 cells) is reported as 550 nM.
For `CO[C@H]1CC[C@H](NC/C=C/C(=O)Nc2ccc(C(=O)c3cn(C)c4c(-c5cc6ncn(C)c6cc5C(F)(F)F)cccc34)cc2C#N)CC1` [Example 38, (E)-N-(2-cyano-4-(1-methyl-7-(1-methyl-6-(trifluoromethyl)-1H-benzo[d]imidazol-5-yl)-1H-indole-3-carbonyl)phenyl)-4-(((1r,4r)-4-methoxycyclohexyl)amino)but-2-enamide], the IC50 ([1]; IC50, GMPPNP-bound KRAS G12C incubated with compound at 25° C. for 1 hour) was 67 nM, the binding rate [2] was “A (A binding rate of 80% or more is rated “A”)” and the IC50 (MIA PaCa-2 cells) was 88 nM.
With `COc1cccc(Cl)c1-c1cccn2c(C(=O)c3ccc(NC(=O)/C=C/CN[C@H]4CC[C@H](OC)CC4)c(C#N)c3)ccc12` [Example 41, (E)-N-(4-(8-(2-chloro-6-methoxyphenyl)indolizine-3-carbonyl)-2-cyanophenyl)-4-(((1r,4r)-4-methoxycyclohexyl)amino)but-2-enamide] the IC50 [1, 3] was 85 nM, the binding rate [2] was “A (A binding rate of 80% or more is rated “A”)” and the IC50 (MIA PaCa-2 cells) was 370 nM.
For `Cn1cnc2cc(-c3cccn4c(C(=O)c5ccc(NC(=O)/C=C/[C@@H]6CCCN6)c(C#N)c5)ccc34)c(C(F)(F)F)cc21` [Example 44, (S,E)-N-(2-cyano-4-(8-(1-methyl-6-(trifluoromethyl)-1H-benzo[d]imidazol-5-yl)indolizine-3-carbonyl)phenyl)-3-(pyrrolidin-2-yl) acrylamide], the IC50 [1, 3] was 61 nM, the binding rate [2] was “A (A binding rate of 80% or more is rated “A”)” and the IC50 (MIA PaCa-2 cells) was 350 nM.

— patent US12673041B2, “4-aminobut-2-enamide derivatives and salt thereof” (TAIHO PHARMACEUTICAL CO., LTD., priority 2019, dated 2026)
